Laboratory results published in EPA's CvTdb concentration-time database.

Key:
[1] = system: Rat; experiment: concentration in brain after dosing; conditions: 0.5 h; dosed: 2-Methyltetrahydrofuran; 40 mg/kg; iv; Male; Harlan Sprague Dawley
[2] = system: Rat; experiment: concentration in plasma after dosing; conditions: 2 min; dosed: 2-Methyltetrahydrofuran; 40 mg/kg; iv; Female; Harlan Sprague Dawley
[3] = system: Rat; experiment: concentration in brain after dosing; conditions: 2 h; dosed: 2-Methyltetrahydrofuran; 40 mg/kg; iv; Male; Harlan Sprague Dawley
[4] = system: Rat; experiment: concentration in brain after dosing; conditions: 2 min; dosed: 2-Methyltetrahydrofuran; 40 mg/kg; iv; Female; Harlan Sprague Dawley
[5] = system: Rat; experiment: concentration in plasma after dosing; conditions: dosed: Fluorotelomer alcohol 8+2, 12 mg/kg, oral, Male, Harlan Sprague Dawley
[6] = system: Rat; experiment: concentration in kidney after dosing; conditions: 6 h; dosed: Fluorotelomer alcohol 8+2; 24 mg/kg; oral; Male; Harlan Sprague Dawley
[7] = system: Rat; experiment: concentration in brain after dosing; conditions: 3 h; dosed: Fluorotelomer alcohol 8+2; 80 mg/kg; oral; Female; Harlan Sprague Dawley
[8] = system: Rat; experiment: concentration in liver after dosing; conditions: 6 h; dosed: Fluorotelomer alcohol 8+2; 24 mg/kg; oral; Male; Harlan Sprague Dawley
[9] = system: Rat; experiment: concentration in plasma after dosing; conditions: dosed: Fluorotelomer alcohol 8+2, 12 mg/kg, oral, Male, Harlan Sprague Dawley; remark: listed apart in the source
[10] = system: Rat; experiment: concentration in plasma after dosing; conditions: 10 min; dosed: Gemfibrozil; 50 mg/kg; oral; Male; Sprague-Dawley
[11] = system: Rat; experiment: concentration in plasma after dosing; conditions: 2 h; dosed: Gemfibrozil; 100 mg/kg; oral; Male; Sprague-Dawley
[12] = system: Rat; experiment: concentration in plasma after dosing; conditions: 5 min; dosed: Gemfibrozil; 4.29 mg/kg; oral; Male; Sprague-Dawley
[13] = system: Rat; experiment: concentration in plasma after dosing; conditions: 24 h; dosed: Gemfibrozil; 100 mg/kg; oral; Male; Sprague-Dawley
[14] = system: Rat; experiment: concentration in kidney after dosing; conditions: 3 h; dosed: Perfluorohexanoic Acid; 80 mg/kg; oral; Female; Harlan Sprague Dawley
[15] = system: Rat; experiment: concentration in plasma after dosing; conditions: dosed: Perfluorohexanoic Acid, 40 mg/kg, oral, Male, Harlan Sprague Dawley
[16] = system: Rat; experiment: concentration in plasma after dosing; conditions: dosed: Perfluorohexanoic Acid, 40 mg/kg, iv, Male, F344
[17] = system: Rat; experiment: concentration in plasma after dosing; conditions: dosed: Perfluorohexanoic Acid, 40 mg/kg, iv, Male, F344; remark: listed apart in the source
[18] = system: Rat; experiment: concentration in liver after dosing; conditions: 6 h; dosed: Perfluorohexanoic Acid; 80 mg/kg; oral; Female; Harlan Sprague Dawley
[19] = system: Rat; experiment: concentration in kidney after dosing; conditions: 6 h; dosed: Perfluorohexanoic Acid; 80 mg/kg; oral; Female; Harlan Sprague Dawley
[20] = system: Rat; experiment: concentration in plasma after dosing; conditions: dosed: Perfluorohexanoic Acid, 80 mg/kg, oral, Male, Harlan Sprague Dawley
[21] = system: Rat; experiment: concentration in liver after dosing; conditions: 1848 h; dosed: Perfluorooctane Sulfonate; 20 mg/kg; oral; Female; F344
[22] = system: Rat; experiment: concentration in kidney after dosing; conditions: 24 h; dosed: Perfluorooctane Sulfonate; 2 mg/kg; oral; Female; Harlan Sprague Dawley
[23] = system: Rat; experiment: concentration in plasma after dosing; conditions: dosed: Perfluorooctane Sulfonate, 2 mg/kg, iv, Female, F344
[24] = system: Rat; experiment: concentration in plasma after dosing; conditions: 864 h; dosed: Perfluorooctane Sulfonate; 2 mg/kg; oral; Female; Harlan Sprague Dawley
[25] = system: Rat; experiment: concentration in kidney after dosing; conditions: 6 h; dosed: Perfluorooctane Sulfonate; 20 mg/kg; oral; Male; Harlan Sprague Dawley
[26] = system: Rat; experiment: concentration in liver after dosing; conditions: 24 h; dosed: Perfluorooctane Sulfonate; 20 mg/kg; oral; Male; Harlan Sprague Dawley
[27] = system: Rat; experiment: concentration in kidney after dosing; conditions: 6 h; dosed: Perfluorooctane Sulfonate; 2 mg/kg; oral; Female; Harlan Sprague Dawley
[28] = system: Rat; experiment: concentration in kidney after dosing; conditions: 864 h; dosed: Perfluorooctane Sulfonate; 2 mg/kg; oral; Female; Harlan Sprague Dawley
[29] = system: Rat; experiment: concentration in liver after dosing; conditions: 864 h; dosed: Perfluorooctane Sulfonate; 2 mg/kg; oral; Female; Harlan Sprague Dawley
[30] = system: Rat; experiment: concentration in plasma after dosing; conditions: dosed: Perfluorooctane Sulfonate, 2 mg/kg, iv, Female, Harlan Sprague-Dawley
[31] = system: Rat; experiment: concentration in kidney after dosing; conditions: 1848 h; dosed: Perfluorooctane Sulfonate; 20 mg/kg; oral; Female; F344
[32] = system: Rat; experiment: concentration in liver after dosing; conditions: 3360 h; dosed: Perfluorooctane Sulfonate; 2 mg/kg; oral; Female; Harlan Sprague Dawley
[33] = system: Rat; experiment: concentration in liver after dosing; conditions: 1848 h; dosed: Perfluorooctane Sulfonate; 2 mg/kg; oral; Female; Harlan Sprague Dawley
[34] = system: Rat; experiment: concentration in liver after dosing; conditions: 3360 h; dosed: Perfluorooctane Sulfonate; 2 mg/kg; oral; Female; Harlan Sprague Dawley; remark: listed apart in the source
[35] = system: Rat; experiment: concentration in kidney after dosing; conditions: 864 h; dosed: Perfluorooctane Sulfonate; 20 mg/kg; oral; Female; F344
[36] = system: Rat; experiment: concentration in kidney after dosing; conditions: 3360 h; dosed: Perfluorooctane Sulfonate; 20 mg/kg; oral; Male; Harlan Sprague Dawley
[37] = system: Rat; experiment: concentration in kidney after dosing; conditions: 864 h; dosed: Perfluorooctane Sulfonate; 2 mg/kg; oral; Female; Harlan Sprague Dawley; remark: listed apart in the source

CC1CCCO1 (stereo unspecified) [2-Methyltetrahydrofuran]
Conditions | concentration in brain [ng/mL] | concentration in plasma [ng/mL]
[1] | 16200 | –
[2] | – | 52500
[3] | 7820 | –
[4] | 50400 | –

O=C(O)CCC(F)(F)C(F)(F)C(F)(F)C(F)(F)C(F)(F)C(F)(F)C(F)(F)F [Fluorotelomer acid 7+3]
concentration in plasma [ng/mL]
Conditions | 0.5 h | 1 h | 9 h | 24 h
[5] | 116 | – | 264 | –
[9] | – | 334 | – | 377

Conditions | concentration in brain [ng/g] | concentration in kidney [ng/g] | concentration in liver [ng/g]
[6] | – | 822 | –
[7] | 1310 | – | –
[8] | – | – | 1500

Cc1ccc(C)c(OCCCC(C)(C)C(=O)O)c1 [Gemfibrozil]
Conditions | concentration in plasma [ng/mL]
[10] | 110000
[11] | 5120
[12] | 893
[13] | 1050

O=C(O)C(F)(F)C(F)(F)C(F)(F)C(F)(F)C(F)(F)F [Perfluorohexanoic Acid]
Conditions | concentration in kidney [ng/g] | concentration in liver [ng/g]
[14] | 38000 | –
[18] | – | 6260
[19] | 2180 | –

Conditions | concentration in plasma [ng/mL]
[15], 0.75 h | 46400
[15], 12 h | 6500
[16], 0.5 h | 23200
[16], 12 h | 120
[17], 3 h | 1450
[17], 5 min | 35700
[20], 5 min | 35400
[20], 9 h | 3240

O=S(=O)([O-])C(F)(F)C(F)(F)C(F)(F)C(F)(F)C(F)(F)C(F)(F)C(F)(F)C(F)(F)F [Perfluorooctane Sulfonate]
Conditions | concentration in kidney [ng/g] | concentration in liver [ng/g] | concentration in plasma [ng/mL]
[21] | – | 55400 | –
[22] | 14600 | – | –
[24] | – | – | 1480
[25] | 63800 | – | –
[26] | – | 164000 | –
[27] | 3800 | – | –
[28] | 1390 | – | –
[29] | – | 11100 | –
[31] | 22700 | – | –
[32] | – | 1350 | –
[33] | – | 5680 | –
[34] | – | 9920 | –
[35] | 38400 | – | –
[36] | 1110 | – | –
[37] | 1390 | – | –

concentration in plasma [ng/mL]
Conditions | 5 min | 24 h | 192 h | 1704 h
[23] | 5590 | – | 4170 | 940
[30] | 5920 | 5370 | – | –
